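1) Cells in 96-well plates. 2) Compound, 48 h, 5 concentrations. 3) Linear interpolation between surrounding doses. 4) Unreached endpoint = highest concentration. GI50 marks 50% less growth.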 Activity calls are given as the source filed them. Rule as the data show it: active = GI50 up to about 1.1 µM and inactive = higher.
Tests used:
Assay in all cases: NCI-60 cell line screen, 48 h
UACC-257 = tested on: UACC-257
SK-OV-3 = tested on: SK-OV-3
DLD-1 = tested on: DLD-1
DMS-114 = tested on: DMS-114
786-0 = tested on: 786-0
HL-60 = tested on: HL-60
K562 = tested on: K562
NCI-H460 = tested on: NCI-H460
SN12C = tested on: SN12C
HCT-116 = tested on: HCT-116
LOX IMVI = tested on: LOX IMVI
M19-MEL = tested on: M19-MEL
NCI-H23 = tested on: NCI-H23
RPMI-8226 = tested on: RPMI-8226
CCRF-CEM = tested on: CCRF-CEM
XF498 = tested on: XF498
SF-539 = tested on: SF-539
HOP-18 = tested on: HOP-18
UACC-62 = tested on: UACC-62
Malme-3M = tested on: Malme-3M
ACHN = tested on: ACHN
UO-31 = tested on: UO-31
HOP-62 = tested on: HOP-62
SNB-19 = tested on: SNB-19
HCT-15 = tested on: HCT-15
SK-MEL-28 = tested on: SK-MEL-28
SW-620 = tested on: SW-620
U-251 = tested on: U-251
OVCAR-3 = tested on: OVCAR-3
OVCAR-8 = tested on: OVCAR-8
TK-10 = tested on: TK-10
MOLT-4 = tested on: MOLT-4
M14 = tested on: M14
SF-295 = tested on: SF-295
EKVX = tested on: EKVX
NCI-H522 = tested on: NCI-H522
COLO 205 = tested on: COLO 205
DMS-273 = tested on: DMS-273
A549 = tested on: A549
HT-29 = tested on: HT-29
SNB-75 = tested on: SNB-75
RXF 393 = tested on: RXF 393
NCI-H226 = tested on: NCI-H226
IGROV-1 = tested on: IGROV-1
KM12 = tested on: KM12
CAKI-1 = tested on: CAKI-1
KM-20L2 = tested on: KM-20L2
SK-MEL-2 = tested on: SK-MEL-2
SK-MEL-5 = tested on: SK-MEL-5
SF-268 = tested on: SF-268
SNB-78 = tested on: SNB-78
LXFL 529 = tested on: LXFL 529
OVCAR-5 = tested on: OVCAR-5
A498 = tested on: A498
OVCAR-4 = tested on: OVCAR-4
HCC 2998 = tested on: HCC 2998

SMILES: Nc1nc2c(c(=O)[nH]1)NC(CO)CN2 (stereo not given)
- GI50 (UACC-257): 24.3 µM (inactive)
- GI50 (SK-OV-3): > 100 µM (inactive)
- GI50 (DLD-1): > 100 µM (inactive)
- GI50 (DMS-114): 66.8 µM (inactive)
- GI50 (786-0): > 100 µM (inactive)
- GI50 (HL-60): > 100 µM (inactive)
- GI50 (K562): 51.3 µM (inactive)
- GI50 (NCI-H460): > 100 µM (inactive)
- GI50 (SN12C): > 100 µM (inactive)
- GI50 (HCT-116): 32.7 µM (inactive)
- GI50 (LOX IMVI): 19.2 µM (inactive)
- GI50 (M19-MEL): 63.2 µM (inactive)
- GI50 (NCI-H23): > 100 µM (inactive)
- GI50 (RPMI-8226): > 100 µM (inactive)
- GI50 (CCRF-CEM): 29.9 µM (inactive)
- GI50 (XF498): 84.9 µM (inactive)
- GI50 (SF-539): > 100 µM (inactive)
- GI50 (HOP-18): > 100 µM (inactive)
- GI50 (UACC-62): 84.7 µM (inactive)
- GI50 (Malme-3M): > 100 µM (inactive)
- GI50 (ACHN): 79.4 µM (inactive)
- GI50 (UO-31): > 100 µM (inactive)
- GI50 (HOP-62): > 100 µM (inactive)
- GI50 (SNB-19): > 100 µM (inactive)
- GI50 (HCT-15): > 100 µM
- GI50 (SK-MEL-28): > 100 µM (inactive)
- GI50 (SW-620): 37.9 µM (inactive)
- GI50 (U-251): > 100 µM (inactive)
- GI50 (OVCAR-3): > 100 µM (inactive)
- GI50 (OVCAR-8): 71 µM (inactive)
- GI50 (TK-10): > 100 µM (inactive)
- GI50 (MOLT-4): 37.1 µM (inactive)
- GI50 (M14): > 100 µM (inactive)
- GI50 (SF-295): 89.5 µM (inactive)
- GI50 (EKVX): > 100 µM (inactive)
- GI50 (NCI-H522): > 100 µM (inactive)
- GI50 (COLO 205): > 100 µM (inactive)
- GI50 (DMS-273): > 100 µM (inactive)
- GI50 (A549): > 100 µM (inactive)
- GI50 (HT-29): 44.2 µM (inactive)
- GI50 (SNB-75): > 100 µM (inactive)
- GI50 (RXF 393): > 100 µM (inactive)
- GI50 (NCI-H226): > 100 µM (inactive)
- GI50 (IGROV-1): > 100 µM (inactive)
- GI50 (KM12): > 100 µM (inactive)

SMILES: CC1(c2cccc3c2C2(O)C=CC4(CCC32)OCCO4)OCCO1 (stereo not given)
- GI50 (UACC-257): > 100 µM (inactive)
- GI50 (CAKI-1): > 100 µM (inactive)
- GI50 (SK-OV-3): > 100 µM (inactive)
- GI50 (DLD-1): > 100 µM (inactive)
- GI50 (DMS-114): > 100 µM (inactive)
- GI50 (786-0): > 100 µM (inactive)
- GI50 (KM-20L2): > 100 µM (inactive)
- GI50 (SK-MEL-2): > 100 µM (inactive)
- GI50 (HL-60): > 100 µM (inactive)
- GI50 (K562): > 100 µM (inactive)
- GI50 (NCI-H460): > 100 µM (inactive)
- GI50 (SK-MEL-5): > 100 µM (inactive)
- GI50 (SN12C): > 100 µM (inactive)
- GI50 (HCT-116): > 100 µM (inactive)
- GI50 (LOX IMVI): > 100 µM (inactive)
- GI50 (M19-MEL): > 100 µM (inactive)
- GI50 (NCI-H23): > 100 µM (inactive)
- GI50 (RPMI-8226): > 100 µM (inactive)
- GI50 (CCRF-CEM): > 100 µM (inactive)
- GI50 (SF-268): > 100 µM (inactive)
- GI50 (SF-539): > 100 µM (inactive)
- GI50 (HOP-18): > 100 µM (inactive)
- GI50 (UACC-62): > 100 µM (inactive)
- GI50 (Malme-3M): > 100 µM (inactive)
- GI50 (ACHN): > 100 µM (inactive)
- GI50 (UO-31): > 100 µM (inactive)
- GI50 (HOP-62): > 100 µM (inactive)
- GI50 (SNB-19): > 100 µM (inactive)
- GI50 (HCT-15): > 100 µM
- GI50 (SNB-78): > 100 µM (inactive)
- GI50 (SK-MEL-28): > 100 µM (inactive)
- GI50 (SW-620): > 100 µM (inactive)
- GI50 (U-251): > 100 µM (inactive)
- GI50 (OVCAR-3): > 100 µM (inactive)
- GI50 (OVCAR-8): > 100 µM (inactive)
- GI50 (LXFL 529): > 100 µM (inactive)
- GI50 (TK-10): > 100 µM (inactive)
- GI50 (MOLT-4): > 100 µM (inactive)
- GI50 (M14): > 100 µM (inactive)
- GI50 (SF-295): > 100 µM (inactive)
- GI50 (EKVX): > 100 µM (inactive)
- GI50 (NCI-H522): > 100 µM (inactive)
- GI50 (OVCAR-5): > 100 µM (inactive)
- GI50 (COLO 205): > 100 µM (inactive)
- GI50 (A498): > 100 µM (inactive)
- GI50 (OVCAR-4): > 100 µM (inactive)
- GI50 (DMS-273): > 100 µM (inactive)
- GI50 (A549): > 100 µM (inactive)
- GI50 (HT-29): > 100 µM (inactive)
- GI50 (SNB-75): > 100 µM (inactive)
- GI50 (HCC 2998): > 100 µM (inactive)
- GI50 (RXF 393): > 100 µM (inactive)
- GI50 (NCI-H226): > 100 µM (inactive)
- GI50 (IGROV-1): > 100 µM (inactive)
- GI50 (KM12): > 100 µM (inactive)

— ChEMBL document CHEMBL1201862, “PubChem BioAssay data set” (2004)
